# Tests used:
# [1] = molecular target: C-C chemokine receptor type 5 (Homo sapiens, UniProt P51681); format: cell membranes, Membrane; details: hek293; further: in other assays of this panel Not Active means under 50% inhibition at 10 µM
# [2] = molecular target: D(1A) dopamine receptor (Homo sapiens, UniProt P21728); assay: DRUGMATRIX: Dopamine D1 radioligand binding (ligand: [3H] SCH-23390); format: cell membranes, CHO, Membrane; details: cho; Not Active = under 50% inhibition at 10 µM
# [3] = molecular target: T1, Cytochrome P450 1A2 (Homo sapiens, UniProt P05177); details: bti-tn-5b1-4; further: in other assays of this panel Not Active means under 50% inhibition at 10 µM
# T1 sequence (P05177 whole entry): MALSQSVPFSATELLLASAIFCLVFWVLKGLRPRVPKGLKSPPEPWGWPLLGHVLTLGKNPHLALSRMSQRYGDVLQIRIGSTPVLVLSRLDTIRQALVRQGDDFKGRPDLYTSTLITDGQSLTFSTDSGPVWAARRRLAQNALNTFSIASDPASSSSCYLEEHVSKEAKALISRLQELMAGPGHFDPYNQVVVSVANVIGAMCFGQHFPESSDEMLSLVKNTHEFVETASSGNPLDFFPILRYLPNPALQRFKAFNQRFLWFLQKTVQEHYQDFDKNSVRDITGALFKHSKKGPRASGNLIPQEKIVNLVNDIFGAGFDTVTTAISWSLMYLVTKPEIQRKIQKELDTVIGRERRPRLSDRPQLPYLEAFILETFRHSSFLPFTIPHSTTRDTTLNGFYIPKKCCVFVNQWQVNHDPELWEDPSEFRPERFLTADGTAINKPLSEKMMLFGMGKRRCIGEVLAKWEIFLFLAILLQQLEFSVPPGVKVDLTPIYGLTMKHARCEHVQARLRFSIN
# [4] = molecular target: T2, Cytochrome P450 2A6 (Homo sapiens, UniProt P11509); details: bti-tn-5b1-4; further: in other assays of this panel Not Active means under 50% inhibition at 10 µM
# T2 sequence (P11509 whole entry): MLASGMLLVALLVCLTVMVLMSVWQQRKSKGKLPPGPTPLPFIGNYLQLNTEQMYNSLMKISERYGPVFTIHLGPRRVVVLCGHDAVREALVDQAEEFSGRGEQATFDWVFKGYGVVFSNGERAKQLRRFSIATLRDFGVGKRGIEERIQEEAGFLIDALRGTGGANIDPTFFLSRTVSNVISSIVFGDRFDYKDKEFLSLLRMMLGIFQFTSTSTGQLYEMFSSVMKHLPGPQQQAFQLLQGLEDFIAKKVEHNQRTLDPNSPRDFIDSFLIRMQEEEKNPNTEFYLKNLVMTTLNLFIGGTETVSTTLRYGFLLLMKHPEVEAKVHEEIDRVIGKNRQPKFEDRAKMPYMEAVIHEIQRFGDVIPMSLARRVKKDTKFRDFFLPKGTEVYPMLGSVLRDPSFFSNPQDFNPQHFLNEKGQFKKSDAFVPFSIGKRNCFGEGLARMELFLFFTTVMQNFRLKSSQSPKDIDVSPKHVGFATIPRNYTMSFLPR
# [5] = molecular target: Kappa-type opioid receptor (Homo sapiens, UniProt P41145); assay: DRUGMATRIX: Opiate kappa (OP2, KOP) radioligand binding (ligand: [3H] Diprenorphine); format: cell membranes, HEK293, Membrane; details: Not Active = under 50% inhibition at 10 µM
# [6] = molecular target: T3, Caspase-1 (Homo sapiens, UniProt P29466); design: species or system Escherichia coli;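 further: Caspase-1 enzyme inhibition assay with a peptide substrate; in other assays of this panel Not Active means under 50% inhibition at 10 µM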
# T3 sequence (P29466 whole entry): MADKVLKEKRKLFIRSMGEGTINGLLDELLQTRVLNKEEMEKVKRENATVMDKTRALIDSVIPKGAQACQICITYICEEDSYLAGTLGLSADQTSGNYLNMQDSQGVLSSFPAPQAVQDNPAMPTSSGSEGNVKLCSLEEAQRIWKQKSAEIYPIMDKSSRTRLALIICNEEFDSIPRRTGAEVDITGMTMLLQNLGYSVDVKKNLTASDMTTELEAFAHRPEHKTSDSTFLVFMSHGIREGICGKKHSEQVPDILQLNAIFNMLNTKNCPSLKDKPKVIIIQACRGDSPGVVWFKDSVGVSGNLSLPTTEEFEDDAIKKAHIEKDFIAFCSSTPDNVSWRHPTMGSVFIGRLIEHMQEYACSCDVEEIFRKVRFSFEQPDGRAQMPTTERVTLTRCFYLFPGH
# [7] = molecular target: Prostaglandin G/H synthase 1 (Homo sapiens, UniProt P23219); assay: biochemical; format: tissue-based, Platelet; details: platelet
# Chain of Prostaglandin G/H synthase 1 (P23219 whole entry): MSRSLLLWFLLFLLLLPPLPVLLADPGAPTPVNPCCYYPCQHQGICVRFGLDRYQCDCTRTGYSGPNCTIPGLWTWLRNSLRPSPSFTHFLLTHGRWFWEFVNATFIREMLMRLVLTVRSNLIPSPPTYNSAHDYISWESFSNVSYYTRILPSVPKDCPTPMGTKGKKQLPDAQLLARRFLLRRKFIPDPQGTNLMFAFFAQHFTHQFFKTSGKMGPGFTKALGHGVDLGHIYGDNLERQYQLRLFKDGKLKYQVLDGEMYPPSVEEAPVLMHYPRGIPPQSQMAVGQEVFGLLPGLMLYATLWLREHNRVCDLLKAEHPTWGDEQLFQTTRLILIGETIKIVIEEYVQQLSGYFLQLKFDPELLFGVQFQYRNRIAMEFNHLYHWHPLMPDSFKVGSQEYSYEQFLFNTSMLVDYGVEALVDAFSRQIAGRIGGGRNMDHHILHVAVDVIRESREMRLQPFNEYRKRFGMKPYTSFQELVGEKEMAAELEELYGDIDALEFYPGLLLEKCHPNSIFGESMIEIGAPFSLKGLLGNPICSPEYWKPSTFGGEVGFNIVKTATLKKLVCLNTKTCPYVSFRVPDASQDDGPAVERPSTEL
# Chain of D(1A) dopamine receptor (P21728 whole entry): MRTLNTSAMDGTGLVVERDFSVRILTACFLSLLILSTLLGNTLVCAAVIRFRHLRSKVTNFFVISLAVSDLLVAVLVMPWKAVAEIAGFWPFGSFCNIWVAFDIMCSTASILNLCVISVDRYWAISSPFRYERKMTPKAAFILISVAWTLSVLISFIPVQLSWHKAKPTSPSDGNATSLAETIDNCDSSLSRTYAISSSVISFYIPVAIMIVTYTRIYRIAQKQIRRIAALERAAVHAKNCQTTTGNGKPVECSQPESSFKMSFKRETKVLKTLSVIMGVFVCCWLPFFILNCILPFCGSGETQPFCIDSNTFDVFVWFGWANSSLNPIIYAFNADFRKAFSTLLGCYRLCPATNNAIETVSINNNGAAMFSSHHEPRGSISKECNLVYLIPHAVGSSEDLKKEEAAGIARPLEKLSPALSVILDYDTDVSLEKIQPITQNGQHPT
# Chain of Kappa-type opioid receptor (P41145 whole entry): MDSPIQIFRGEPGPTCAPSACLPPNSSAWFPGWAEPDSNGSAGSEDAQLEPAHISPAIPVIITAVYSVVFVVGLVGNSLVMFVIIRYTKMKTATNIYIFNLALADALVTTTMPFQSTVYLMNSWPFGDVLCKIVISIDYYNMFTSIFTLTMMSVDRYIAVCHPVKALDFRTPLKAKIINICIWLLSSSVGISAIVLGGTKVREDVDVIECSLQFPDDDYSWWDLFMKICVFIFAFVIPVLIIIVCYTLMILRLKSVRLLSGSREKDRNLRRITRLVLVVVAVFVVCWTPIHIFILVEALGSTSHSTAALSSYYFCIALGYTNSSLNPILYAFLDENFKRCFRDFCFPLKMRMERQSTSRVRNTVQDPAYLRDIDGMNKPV
# Chain of C-C chemokine receptor type 5 (P51681 whole entry): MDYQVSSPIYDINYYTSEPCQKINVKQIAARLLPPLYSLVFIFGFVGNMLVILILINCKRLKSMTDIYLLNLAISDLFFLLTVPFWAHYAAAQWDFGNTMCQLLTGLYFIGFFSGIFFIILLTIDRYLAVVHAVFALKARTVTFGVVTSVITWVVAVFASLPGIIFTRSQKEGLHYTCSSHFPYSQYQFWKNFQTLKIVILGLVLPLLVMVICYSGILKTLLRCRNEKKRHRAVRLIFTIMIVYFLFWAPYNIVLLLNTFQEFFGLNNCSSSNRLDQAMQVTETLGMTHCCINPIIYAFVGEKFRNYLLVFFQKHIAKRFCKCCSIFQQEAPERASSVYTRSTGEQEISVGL
molecule,measurement,setting,value
O=C(O)c1cc(-c2ccc(F)cc2F)ccc1O [DIFLUNISAL],IC50,[1],Not Active
same,IC50,[2],Not Active
same,IC50,[3],Not Active
same,Ki,[3],Not Active
same,IC50,[4],Not Active
same,Ki,[4],Not Active
same,IC50,[5]; hek293,Not Active
same,IC50,[6],Not Active
same,IC50,[7],Not Active
CCn1cc(C(=O)O)c(=O)c2cc(F)c(N3CCNC(C)C3)c(F)c21 (centres undefined) [LOMEFLOXACIN],IC50,[1],Not Active
same,IC50,[2],Not Active
same,IC50,[3],Not Active
same,Ki,[3],Not Active
same,IC50,[4],Not Active
same,Ki,[4],Not Active
same,IC50,[5]; hek293,Not Active
same,IC50,[6],Not Active
same,IC50,[7],Not Active
CN(C)C(=O)Oc1cccc([N+](C)(C)C)c1.[Br-] [NEOSTIGMINE BROMIDE],IC50,[1],Not Active
same,IC50,[2],Not Active
same,IC50,[3],Not Active
same,Ki,[3],Not Active
same,IC50,[4],Not Active
same,Ki,[4],Not Active
same,IC50,[6],Not Active
same,IC50,[7],Not Active
CN1CCCC(CN2c3ccccc3Sc3ccccc32)C1 (centres undefined) [MEPAZINE],IC50,[1],Not Active
same,IC50,[2],Not Active
same,IC50,[3],Not Active
same,Ki,[3],Not Active
same,IC50,[4],Not Active
same,Ki,[4],Not Active
same,IC50,[5]; hek293,Not Active
same,IC50,[6],Not Active
same,IC50,[7],Not Active
ClC(Cl)(Cl)Cl [CARBON TETRACHLORIDE],IC50,[1],Not Active
same,IC50,[2],Not Active
same,IC50,[3],Not Active
same,Ki,[3],Not Active
same,IC50,[4],Not Active
same,Ki,[4],Not Active
same,IC50,[5]; hek293,Not Active
same,IC50,[6],Not Active
same,IC50,[7],Not Active
CCN(CC)CCCC(C)Nc1c2ccc(Cl)cc2nc2ccc(OC)cc12 (centres undefined) [QUINACRINE],IC50,[1],Not Active
same,IC50,[2],Not Active
same,IC50,[3],Not Active
same,Ki,[3],Not Active
same,IC50,[4],Not Active
same,Ki,[4],Not Active
same,IC50,[5]; hek293,Not Active
same,IC50,[6],Not Active
same,IC50,[7],Not Active
CC(C)c1c(C(=O)Nc2ccccc2)c(-c2ccccc2)c(-c2ccc(F)cc2)n1CC[C@@H](O)C[C@@H](O)CC(=O)O [ATORVASTATIN],IC50,[1],Not Active
same,IC50,[2],Not Active
same,IC50,[4],Not Active
same,Ki,[4],Not Active
same,IC50,[5]; hek293,Not Active
same,IC50,[6],Not Active
same,IC50,[7],Not Active
N[C@@H](Cn1ccc(=O)c(O)c1)C(=O)O [L-MIMOSINE],IC50,[1],Not Active
same,IC50,[2],Not Active
same,IC50,[5]; hek293,Not Active
same,IC50,[6],Not Active
same,IC50,[7],Not Active
CC(=O)OCC(=O)[C@@]12OC(C)(C)O[C@@H]1C[C@H]1[C@@H]3C[C@H](F)C4=CC(=O)C=C[C@]4(C)[C@@]3(F)[C@@H](O)C[C@@]12C [FLUOCINONIDE],IC50,[1],Not Active
same,IC50,[2],Not Active
same,IC50,[5]; hek293,Not Active
same,IC50,[6],Not Active
same,IC50,[7],Not Active
CCOc1nc2cccc(C(=O)O)c2n1Cc1ccc(-c2ccccc2-c2nnn[nH]2)cc1,IC50,[1],Not Active
same,IC50,[2],Not Active
same,IC50,[4],Not Active
same,Ki,[4],Not Active
same,IC50,[5]; hek293,Not Active
same,IC50,[6],Not Active
same,IC50,[7],Not Active
C[C@@H]1O[C@@H](O[C@H]2C[C@@H](O)[C@]3(CO)[C@H]4[C@H](O)C[C@]5(C)[C@@H](C6=CC(=O)OC6)CC[C@]5(O)[C@@H]4CC[C@]3(O)C2)[C@H](O)[C@H](O)[C@H]1O [OUABAIN],IC50,[1],Not Active
same,IC50,[2],Not Active
same,IC50,[4],Not Active
same,Ki,[4],Not Active
same,IC50,[6],Not Active
same,IC50,[7],Not Active
C#C[C@]1(O)CC[C@H]2[C@@H]3CCC4=CC(=O)CC[C@]4(C)[C@H]3CC[C@@]21C [ETHISTERONE],IC50,[1],Not Active
same,IC50,[2],Not Active
same,IC50,[4],Not Active
same,Ki,[4],Not Active
same,IC50,[5]; hek293,Not Active
same,IC50,[6],Not Active
same,IC50,[7],Not Active
COLISTIN,IC50,[1],Not Active
same,Ki,[1],Not Active
same,IC50,[2],Not Active
same,Ki,[2],Not Active
same,IC50,[3],Not Active
same,Ki,[3],Not Active
same,IC50,[4],Not Active
same,Ki,[4],Not Active
same,IC50,[6],Not Active
same,Ki,[6],Not Active
same,IC50,[7],Not Active
same,Ki,[7],Not Active
CC(C)(C(=O)O)c1ccc(C(O)CCCN2CCC(C(O)(c3ccccc3)c3ccccc3)CC2)cc1 (centres undefined) [FEXOFENADINE],IC50,[1],Not Active
same,IC50,[2],Not Active
same,IC50,[4],Not Active
same,Ki,[4],Not Active
same,IC50,[5]; hek293,Not Active
same,IC50,[6],Not Active
same,IC50,[7],Not Active
NNCCc1ccccc1 [PHENELZINE],IC50,[1],Not Active
same,IC50,[2],Not Active
same,IC50,[3],Not Active
same,Ki,[3],Not Active
same,IC50,[4],Not Active
same,Ki,[4],Not Active
same,IC50,[6],Not Active
same,IC50,[7],Not Active
COBALTOUS CHLORIDE,IC50,[1],Not Active
same,Ki,[1],Not Active
same,IC50,[2],Not Active
same,Ki,[2],Not Active
same,IC50,[3],Not Active
same,Ki,[3],Not Active
same,IC50,[4],Not Active
same,Ki,[4],Not Active
same,IC50,[6],Not Active
same,Ki,[6],Not Active
same,IC50,[7],Not Active
same,Ki,[7],Not Active
CC(=O)Oc1ccccc1C(=O)O [ASPIRIN],IC50,[1],Not Active
same,IC50,[2],Not Active
same,IC50,[3],Not Active
same,Ki,[3],Not Active
same,IC50,[4],Not Active
same,Ki,[4],Not Active
same,IC50,[5]; hek293,Not Active
same,IC50,[6],Not Active
Cc1c(O)cccc1C(=O)N[C@@H](CSc1ccccc1)[C@H](O)CN1C[C@H]2CCCC[C@H]2C[C@H]1C(=O)NC(C)(C)C,IC50,[1],Not Active
same,IC50,[3],Not Active
same,Ki,[3],Not Active
same,IC50,[4],Not Active
same,Ki,[4],Not Active
same,Ki,[5],14.4 µM
same,IC50,[5]; read-out: IC50,36 µM
same,IC50,[6],Not Active
same,IC50,[7],Not Active
CC(C)(C)NCC(O)COc1cccc2c1CC(O)C(O)C2 (centres undefined) [NADOLOL],IC50,[1],Not Active
same,IC50,[2],Not Active
same,IC50,[4],Not Active
same,Ki,[4],Not Active
same,IC50,[5]; hek293,Not Active
same,IC50,[6],Not Active
same,IC50,[7],Not Active
C[N+](C)(C)C[C@H](O)CC(=O)[O-] [LEVOCARNITINE],IC50,[1],Not Active
same,IC50,[2],Not Active
same,IC50,[3],Not Active
same,Ki,[3],Not Active
same,IC50,[4],Not Active
same,Ki,[4],Not Active
same,IC50,[6],Not Active
same,IC50,[7],Not Active
C[C@@H]1C/C=C/C=C/C=C/C=C/[C@H](O[C@@H]2O[C@H](C)[C@@H](O)[C@H](N)[C@@H]2O)C[C@@H]2O[C@](O)(C[C@@H](O)C[C@H]3O[C@@H]3/C=C/C(=O)O1)C[C@H](O)[C@H]2C(=O)O [NATAMYCIN],IC50,[1],Not Active
same,IC50,[2],Not Active
same,IC50,[5]; hek293,Not Active
same,IC50,[6],Not Active
same,IC50,[7],Not Active
CN(C)C(=N)NC(=N)N [METFORMIN],IC50,[1],Not Active
same,IC50,[2],Not Active
same,IC50,[4],Not Active
same,Ki,[4],Not Active
same,IC50,[5]; hek293,Not Active
same,IC50,[6],Not Active
same,IC50,[7],Not Active
C[C@]12CC[C@H]3[C@@H](CCC4=CC(=O)CC[C@@H]43)[C@@H]1CC[C@@H]2O [NANDROLONE],IC50,[1],Not Active
same,IC50,[2],Not Active
same,IC50,[3],Not Active
same,Ki,[3],Not Active
same,IC50,[4],Not Active
same,Ki,[4],Not Active
same,IC50,[6],Not Active
same,IC50,[7],Not Active
CS(=O)(=O)Nc1ccc([N+](=O)[O-])cc1Oc1ccccc1 [NIMESULIDE],IC50,[1],Not Active
same,IC50,[2],Not Active
same,IC50,[3],Not Active
same,Ki,[3],Not Active
same,IC50,[4],Not Active
same,Ki,[4],Not Active
same,IC50,[5]; hek293,Not Active
same,IC50,[6],Not Active
NC12CC3CC(CC(C3)C1)C2 [AMANTADINE],IC50,[1],Not Active
same,IC50,[2],Not Active
same,IC50,[5]; hek293,Not Active
same,IC50,[6],Not Active
same,IC50,[7],Not Active

# From ChEMBL document CHEMBL1909046, “DrugMatrix in vitro pharmacology data”
